Source: publication PMC8416020 (eLife, 2021)
Where no end group is shown, it is not given here.

Test system: GHSR labeled with 7H4MC-ethylglycine at W215^5.41
Experiment: Ligand binding and activation of W215^5.41-labeled receptor
Format: biochemical, human
Details: basal activity markedly decreased

## ghrelin: natural full agonist of GHSR, natural peptide agonist (GSSFLSPEHQRVQQRKESKKPPAKLQPR; not fully specified; ends and bridges not checked; UniProt Q9UBU3 24-51, looked up)
  ligand binding and activation of W215^5.41 mutant: could still bind its ligands and be activated by ghrelin
